The text below walks through data of patent publication US20110152227A1, “DEUTERIUM LABELLED DERIVATIVES OF 3-(2-HYDROXY-5-METHYPHENYL)-N,N-DIISOPROPYL-3-PHENYLPROPYLAMINE AND METHODS OF USE THEREOF” (CONCERT PHARMACEUTICALS INC., priority 2008, published 2011).

A short description of the data set: Evaluation of metabolic stability in human liver microsomes. It counts as in vitro ADME. The settings on record: for half-life at 1 μM: human, human liver microsomes; for half-life in human liver microsomes as compared to tolterodine: result in words, versus tolterodine. The method, then: Materials: Human liver microsomes (20 mg/mL) were obtained from Xenotech, LLC (Lenexa, Kans.). β-nicotinamide adenine dinucleotide phosphate, reduced form (NADPH), magnesium chloride (MgCl2), and dimethyl sulfoxide (DMSO) were purchased from Sigma-Aldrich.
The 7.5 mM stock solutions were diluted to 50 μM in acetonitrile (ACN). The 20 mg/mL human liver microsomes were diluted to 0.625 mg/mL in 0.1 M potassium phosphate buffer, pH 7.4, containing 3 mM MgCl2. The diluted microsomes were added to wells of a 96-well deep-well polypropylene plate in duplicate. Ten μL of one of the […] test compound solutions was added to the microsomes and the mixture was pre-warmed for 10 minutes. Reactions were initiated by addition of pre-warmed NADPH solution. The final reaction volume was 0.5 mL and contained 0.5 mg/mL human liver microsomes, 1 μM test compound, and 2 mM NADPH in 0.1 M potassium phosphate buffer, pH 7.4, and 3 mM MgCl2. The reaction mixtures were incubated at 37° C., and 50 μL aliquots were removed at 0, 5, 10, 20, and 30 minutes and added to shallow-well 96-well plates which contained 50 μL of ice-cold ACN with internal standard to stop the reactions. The plates were stored at 4° C. for 20 minutes after which 100 μL of water was added to the wells of the plate before centrifugation to pellet precipitated proteins. Supernatants were transferred to another 96-well plate and analyzed for amounts of parent remaining by LC-MS/MS using an Applied Bio-systems API 4000 mass spectrometer. 7-ethoxy coumarin (1 μM) was used as a positive control. The experiment was repeated as second time to confirm the results.
Data analysis: The in vitro t1/2s for test compounds were calculated from the slopes of the linear regression of % parent remaining (ln) vs incubation time relationship using the following formula: in vitro t1/2=0.693/k, where k=−[slope of linear regression of % parent remaining (ln) vs incubation time]. Data analysis was performed using Microsoft Excel Software.
In general terms: Liver microsomes are vesicles of endoplasmic reticulum, rich in cytochrome P450 enzymes.

The mark [1] stands for this setting: pH 7.4, average of Experiment 1 and 2, human liver microsomes, read-out: Ave t1/2.
[2] abbreviates: pH 7.4, human liver microsomes 0.5 mg/mL, 1 μM test compound, 2 mM NADPH, 37° C., 0-30 minutes, Experiment 1, read-out: t1/2 (minutes) Experiment 1.
The mark [3] stands for this setting: pH 7.4, human liver microsomes 0.5 mg/mL, 1 μM test compound, 2 mM NADPH, 37° C., 0-30 minutes, Experiment 2 (repeat), read-out: t1/2 (minutes) Experiment 2.

Like-named read-outs stand apart in the source and are kept apart here.

Regarding `[2H]C([2H])([2H])c1ccc(O)c([C@H](CCN(C([2H])(C([2H])([2H])[2H])C([2H])([2H])[2H])C([2H])(C([2H])([2H])[2H])C([2H])([2H])[2H])c2ccccc2)c1` [Compound 100], the “half-life in human liver microsomes as compared to tolterodine” value is given as “substantially increased half-life”. Moreover, the half-life at 1 μM under setting [1] amounted to 25.8 min. Also, under setting [2], the half-life at 1 μM was determined as 23.5 min. Under setting [3], the half-life at 1 μM came out at 28 min.
For `[2H]C([2H])([2H])C([2H])(N(CC[C@H](c1ccccc1)c1cc(C)ccc1O)C([2H])(C([2H])([2H])[2H])C([2H])([2H])[2H])C([2H])([2H])[2H]` [Compound 106, (R)-2-(3-(Di(isopropyl-d7)amino)-1-phenylpropyl)-4-methylphenol], the half-life at 1 μM runs as follows: under setting [1], 15.1 min; under setting [2], 14.6 min; under setting [3], 15.6 min.
On to `[2H]C([2H])([2H])c1ccc(O)c([C@H](CCN(C(C)C)C(C)C)c2ccccc2)c1` [Compound 112], for which the “half-life in human liver microsomes as compared to tolterodine” value is “substantially increased half-life”. The half-life at 1 μM under setting [1] worked out at 26.6 min. Further, the half-life at 1 μM under setting [2] came to 24.3 min. In addition, the half-life at 1 μM under setting [3] came out at 28.9 min.
In the case of `Cc1ccc(O)c(C(CCN(C(C)C)C(C)C)c2ccccc2)c1` (centres unmarked) [Tolterodine, 3-(2-hydroxy-5-methylphenyl)-N,N-diisopropyl-3-phenylpropylamine, reference compound], the half-life at 1 μM reads like this: under setting [1], 13.8 min; under setting [2], 13.4 min; under setting [3], 14.2 min.
